Test results published in patent US20250236616A1, “IMMUNOMODULATING AZALIDES” (Zoetis Services LLC, priority 2021, published 2025).

tested on: TNF-α; assay: Whole bovine blood assay, LPS-induced TNF-α; type: cell-based; settings: fresh whole bovine blood, LPS stimulant; top drug concentration 250 μM
Protocol: Whole Blood Assay-Fresh whole bovine blood samples were collected into heparinized vacutainer tubes. Assay plates were prepared with 25 μL of drug diluted in PBS at varying concentration in 96 round bottom wells, then 225 μL of blood was added and plates incubated at 37° C. for 4 hours. Cells were stimulated with LPS (or PBS for controls) by adding 25 μL to the plates at a final concentration of 1 μg/mL and incubated at 37° C. for 18 hours. To collect plasma, plates were centrifuged at 2,000×g for 10 minutes and 100 μL of supernatant was transferred to a 96 well polypropylene plate that was sealed and stored at −80° C. Samples were assayed for cytokines using the Meso Scale Discovery (MSD) platform (described below). This same MSD platform was used to assess cytokines in the plasma collected directly from drug treated animals.
Cytokine Detection—An MSD U-Plex cytokine assay was developed following the MSD U-Plex protocol guide and included biotinylated capture antibodies against: bovine Interleukin (IL)-1β (Biorad), bovine IL-6 (R&D Systems) and bovine tumor necrosis factor (TNF)-α (R&D Systems). […] Assay calibrators (Kingfisher) were diluted to a concentration of […] in control lithium heparin plasma, followed by 4-fold serial dilutions into plasma. […] Antibodies were used at the following concentrations: anti-IL-1β at 1 μg/mL, anti-IL-6 at 1 μg/mL and anti-TNF-α at 0.5 μg/mL. Cytokines were quantified according to manufacturer's instructions using a chemiluminescent readout. In brief, 0.5 mL of all biotinylated antibodies were diluted to 10 μg/mL with Diluent 100 and paired to their respective linkers by adding 750 μL of supplied Linker solution and incubated for 30 minutes followed by addition of Stop solution for another 30 minutes. The linked antibodies were then diluted 10-fold into Stop solution. Plates were coated by adding 50 μL of antibody solutions per well and incubated covered and shaking for 1 hour at room temperature. Plates were washed three times with PBS/Tween20 prior to samples or standards being added at 30 μL per well and incubated as above. Plates were washed three times before detection antibodies were added along with 2% goat and rabbit serum to block and incubated same as above. Plates were washed a further three times before addition of 150 μL 2X Read buffer and read immediately on the SI6000 instrument (MSD). For soluble protein levels, a BCA protein kit (Thermofisher) was used. The cytokine concentrations (pg/mL) were normalized to the total protein levels for each sample. [Bassel et. al., BMC Veterinary Research (2020) 16:168]
Therefore, a fresh whole bovine blood assay was developed with LPS as a stimulant (TLR-4 agonist) and with IL-1β and TNF-α as the read-out. Compounds of the invention were evaluated against a positive control for their ability to inhibit LPS-induced IL-1β and TNF-α as an overall evaluation of relative potency and modulation of target pathways.
TNFα is a cell signaling protein, cytokine, that plays a key role in both acute and chronic inflammation. In the bovine whole blood in vitro screening assay the inhibition of TNFα as induced by stimulation by lipopolysaccharide (LPS) and as measured by half the maximal inhibitory concentration (IC50) is recognized as the primary biomarker of immunomodulation potency upon pretreatment with the compounds of the invention. IL-1 B is a mediator of the inflammation response and is involved in a number of cellular activities including proliferation, differentiation and apoptosis. IL-1ß is also released upon cellular stress or cytotoxicity or upon TLR stimulation. […] In order to estimate a therapeutic index from the in vitro assay a differential between the TNFα IC50 (immunomodulation potency) versus the perceived cellular toxicity concentration (IL-1β release or overstimulation) was utilized.

Structure (SMILES)	IC50 [µM]
CC[C@H]1OC(=O)[C@H](C)[C@@H](O[C@H]2C[C@@](C)(OC)[C@](O)(CNCC3CC3)[C@H](C)O2)[C@H](C)[C@@H](O[C@@H]2O[C@H](C)C[C@H](N(C)S(=O)(=O)c3ccc(Cl)cc3)[C@H]2O)[C@](C)(O)C[C@@H](C)CN[C@H](C)[C@@H](O)[C@]1(C)O [Example B-24]	10
CCCNC[C@]1(O)[C@H](C)O[C@@H](O[C@H]2[C@H](C)[C@@H](O[C@@H]3O[C@H](C)C[C@H](N(C)S(=O)(=O)c4ccccc4NC4CC4)[C@H]3O)[C@](C)(O)C[C@@H](C)CN[C@H](C)[C@@H](O)[C@](C)(O)[C@@H](CC)OC(=O)[C@@H]2C)C[C@@]1(C)OC [Example B-63]	9
CC[C@H]1OC(=O)[C@H](C)[C@@H](O[C@H]2C[C@@](C)(OC)[C@](O)(CNCC(C)C)[C@H](C)O2)[C@H](C)[C@@H](O[C@@H]2O[C@H](C)C[C@H](N(C)S(=O)(=O)Nc3ccc(C(F)(F)F)cc3)[C@H]2O)[C@](C)(O)C[C@@H](C)CN[C@H](C)[C@@H](O)[C@]1(C)O [Example B-85]	9
CC[C@H]1OC(=O)[C@H](C)[C@@H](O[C@H]2C[C@@](C)(OC)[C@](O)(CN3CCCCC3)[C@H](C)O2)[C@H](C)[C@@H](O[C@@H]2O[C@H](C)C[C@H](N(C)S(=O)(=O)Nc3ccc(I)cc3)[C@H]2O)[C@](C)(O)C[C@@H](C)CN[C@H](C)[C@@H](O)[C@]1(C)O [Example C-30]	9
CC[C@H]1OC(=O)[C@H](C)[C@@H](O[C@H]2C[C@@](C)(OC)[C@](O)(CNc3ccccc3)[C@H](C)O2)[C@H](C)[C@@H](O[C@@H]2O[C@H](C)C[C@H](N(C)S(=O)(=O)c3ccc(Cl)cc3)[C@H]2O)[C@](C)(O)C[C@@H](C)CN[C@H](C)[C@@H](O)[C@]1(C)O [Example B-32]	23
CC[C@H]1OC(=O)[C@H](C)[C@@H](O[C@H]2C[C@@](C)(OC)[C@](O)(CNC3CCCC3)[C@H](C)O2)[C@H](C)[C@@H](O[C@@H]2O[C@H](C)C[C@H](N(C)S(=O)(=O)c3ccc(Cl)cc3)[C@H]2O)[C@](C)(O)C[C@@H](C)CN[C@H](C)[C@@H](O)[C@]1(C)O [Example B-22]	9
CC[C@H]1OC(=O)[C@H](C)[C@@H](O[C@H]2C[C@@](C)(OC)[C@](O)(CN3CCCCC3)[C@H](C)O2)[C@H](C)[C@@H](O[C@@H]2O[C@H](C)C[C@H](N(C)S(=O)(=O)Nc3ccc(Br)cc3)[C@H]2O)[C@](C)(O)C[C@@H](C)CN[C@H](C)[C@@H](O)[C@]1(C)O [Example C-29]	14
CCOCCNC[C@]1(O)[C@H](C)O[C@@H](O[C@H]2[C@H](C)[C@@H](O[C@@H]3O[C@H](C)C[C@H](N(C)S(=O)(=O)Nc4ccc(C(F)(F)F)cc4)[C@H]3O)[C@](C)(O)C[C@@H](C)CN[C@H](C)[C@@H](O)[C@](C)(O)[C@@H](CC)OC(=O)[C@@H]2C)C[C@@]1(C)OC [Example B-83]	30
CC[C@H]1OC(=O)[C@H](C)[C@@H](O[C@H]2C[C@@](C)(OC)[C@](O)(CNCCCOC)[C@H](C)O2)[C@H](C)[C@@H](O[C@@H]2O[C@H](C)C[C@H](N(C)S(=O)(=O)Nc3ccc(C(F)(F)F)cc3)[C@H]2O)[C@](C)(O)C[C@@H](C)CN[C@H](C)[C@@H](O)[C@]1(C)O [Example B-78]	21
CC[C@H]1OC(=O)[C@H](C)[C@@H](O[C@H]2C[C@@](C)(OC)[C@](O)(CNCCC3CCOCC3)[C@H](C)O2)[C@H](C)[C@@H](O[C@@H]2O[C@H](C)C[C@H](N(C)S(=O)(=O)Nc3ccc(C(F)(F)F)cc3)[C@H]2O)[C@](C)(O)C[C@@H](C)CN[C@H](C)[C@@H](O)[C@]1(C)O [Example B-66]	30
CC[C@H]1OC(=O)[C@H](C)[C@@H](O[C@H]2C[C@@](C)(OC)[C@](O)(CN3CCc4ccccc4C3)[C@H](C)O2)[C@H](C)[C@@H](O[C@@H]2O[C@H](C)C[C@H](N(C)S(=O)(=O)c3ccc(Cl)cc3)[C@H]2O)[C@](C)(O)C[C@@H](C)CN[C@H](C)[C@@H](O)[C@]1(C)O [Example C-10]	23
CC[C@H]1OC(=O)[C@H](C)[C@@H](O[C@H]2C[C@@](C)(OC)[C@](O)(CN3CCCCC3)[C@H](C)O2)[C@H](C)[C@@H](O[C@@H]2O[C@H](C)C[C@H](N(C)S(=O)(=O)Nc3ccccc3)[C@H]2Oc2ccc(F)cc2)[C@](C)(O)C[C@@H](C)CN[C@H](C)[C@@H](O)[C@]1(C)O [Example C-51]	9
CC[C@H]1OC(=O)[C@H](C)[C@@H](O[C@H]2C[C@@](C)(OC)[C@](O)(CNc3ccccc3)[C@H](C)O2)[C@H](C)[C@@H](O[C@@H]2O[C@H](C)C[C@H](N(C)S(=O)(=O)Nc3ccc(C(F)(F)F)cc3)[C@H]2O)[C@](C)(O)C[C@@H](C)CN[C@H](C)[C@@H](O)[C@]1(C)O [Example B-64]	8
CC[C@H]1OC(=O)[C@H](C)[C@@H](O[C@H]2C[C@@](C)(OC)[C@](O)(CN3CCCCC3)[C@H](C)O2)[C@H](C)[C@@H](O[C@@H]2O[C@H](C)C[C@H](N(C)S(=O)(=O)Nc3ccc(Cl)c(C(F)(F)F)c3)[C@H]2O)[C@](C)(O)C[C@@H](C)CN[C@H](C)[C@@H](O)[C@]1(C)O [Example C-31]	8
CC[C@H]1OC(=O)[C@H](C)[C@@H](O[C@H]2C[C@@](C)(OC)[C@](O)(CNCCOC)[C@H](C)O2)[C@H](C)[C@@H](O[C@@H]2O[C@H](C)C[C@H](N(C)S(=O)(=O)Nc3ccc(C(F)(F)F)cc3)[C@H]2O)[C@](C)(O)C[C@@H](C)CN[C@H](C)[C@@H](O)[C@]1(C)O [Example B-84]	51
CC[C@H]1OC(=O)[C@H](C)[C@@H](O[C@H]2C[C@@](C)(OC)[C@](O)(CN3CCCCC3)[C@H](C)O2)[C@H](C)[C@@H](O[C@@H]2O[C@H](C)C[C@H](N(C)S(=O)(=O)Nc3ccccc3)[C@H]2Oc2ccccc2)[C@](C)(O)C[C@@H](C)CN[C@H](C)[C@@H](O)[C@]1(C)O [Example C-52]	15

tested on: IL-6; assay: Whole bovine blood assay, LPS-induced IL-6; type: cell-based; settings: fresh whole bovine blood, LPS stimulant; top drug concentration 250 μM

Structure (SMILES)	IC50 [µM]
CCCNC[C@]1(O)[C@H](C)O[C@@H](O[C@H]2[C@H](C)[C@@H](O[C@@H]3O[C@H](C)C[C@H](N(C)S(=O)(=O)c4ccccc4NC4CC4)[C@H]3O)[C@](C)(O)C[C@@H](C)CN[C@H](C)[C@@H](O)[C@](C)(O)[C@@H](CC)OC(=O)[C@@H]2C)C[C@@]1(C)OC [Example B-63]	10
CC[C@H]1OC(=O)[C@H](C)[C@@H](O[C@H]2C[C@@](C)(OC)[C@](O)(CNCC(C)C)[C@H](C)O2)[C@H](C)[C@@H](O[C@@H]2O[C@H](C)C[C@H](N(C)S(=O)(=O)Nc3ccc(C(F)(F)F)cc3)[C@H]2O)[C@](C)(O)C[C@@H](C)CN[C@H](C)[C@@H](O)[C@]1(C)O [Example B-85]	26
CC[C@H]1OC(=O)[C@H](C)[C@@H](O[C@H]2C[C@@](C)(OC)[C@](O)(CN3CCCCC3)[C@H](C)O2)[C@H](C)[C@@H](O[C@@H]2O[C@H](C)C[C@H](N(CC(C)C)S(=O)(=O)c3ccc(OC)cc3)[C@H]2O)[C@](C)(O)C[C@@H](C)CN[C@H](C)[C@@H](O)[C@]1(C)O [Example C-43]	4
CC[C@H]1OC(=O)[C@H](C)[C@@H](O[C@H]2C[C@@](C)(OC)[C@](O)(CN3CCCCC3)[C@H](C)O2)[C@H](C)[C@@H](O[C@@H]2O[C@H](C)C[C@H](N(C)S(=O)(=O)c3ccc(S(F)(F)(F)(F)F)cc3)[C@H]2O)[C@](C)(O)C[C@@H](C)CN[C@H](C)[C@@H](O)[C@]1(C)O [Example C-47]	4
CC[C@H]1OC(=O)[C@H](C)[C@@H](O[C@H]2C[C@@](C)(OC)[C@](O)(CNCCS(=O)(=O)c3ccccc3)[C@H](C)O2)[C@H](C)[C@@H](O[C@@H]2O[C@H](C)C[C@H](N(C)S(=O)(=O)Nc3ccc(C(F)(F)F)cc3)[C@H]2O)[C@](C)(O)C[C@@H](C)CN[C@H](C)[C@@H](O)[C@]1(C)O [Example B-128]	23
CC[C@H]1OC(=O)[C@H](C)[C@@H](O[C@H]2C[C@@](C)(OC)[C@](O)(CNC3CCCCC3)[C@H](C)O2)[C@H](C)[C@@H](O[C@@H]2O[C@H](C)C[C@H](N(C)S(=O)(=O)Nc3ccc(C(F)(F)F)cc3)[C@H]2O)[C@](C)(O)C[C@@H](C)CN[C@H](C)[C@@H](O)[C@]1(C)O [Example B-69]	16
CCCNC[C@]1(O)[C@H](C)O[C@@H](O[C@H]2[C@H](C)[C@@H](O[C@@H]3O[C@H](C)C[C@H](N(C)S(=O)(=O)c4nccn4C)[C@H]3Oc3ccc(F)cc3C)[C@](C)(O)C[C@@H](C)CN[C@H](C)[C@@H](O)[C@](C)(O)[C@@H](CC)OC(=O)[C@@H]2C)C[C@@]1(C)OC [Example B-121]	5
